Converted amounts (≈) assume the structure as drawn.
Assays:
DNA = assay: Bleomycin-dependent DNA damage; assay type: biochemical; details: test sample 0.1 mg/mL, λ = 532 nm; mean of three replicates ± SD; ascorbic acid 0.24 mM
From the text: Bleomycin-dependent DNA damage. The prepared polycyclic thiadiazolopyrimidine-based compounds were examined through the bleomycin-dependant DNA damage, and the results were compared to that of ascorbic acid as a positive control. The obtained data reflected the ability of these derivatives to protect the DNA from damage. The capability of compounds 16a–b and 17a–b to manifest the best protective effect against DNA damage was indicated by the corresponding absorbance values ranging from 0.031 to 0.053 (Table 4)[35],[36].
Bleomycin-dependent DNA damage experiment: To a mixture of 0.5 mg / mL of DNA, 5 mM magnesium chloride, 50 mM ferric chloride and 0.05 mg / mL bleomycin sulfate was prepared. The test sample was prepared at a concentration of 0.1 mg / mL and added to the mixture. After incubation of the mixture for one hour at 37 °C, 0.05 mL of EDTA (0.1 M) was added to terminate the reaction. In the next step, 0.5 mL of TBA (1% w / v) and 0.5 mL of HCl (25% v / v) were added for colour development and the mixture was heated for 10 minutes at 80 °C. The mixture was centrifuged and the absorbance expressed, the amount of damage to the DNA was measured at λ = 532 nm. L-Ascorbic acid (0.24 mM) was used as a positive control.

[1] = system: Escherichia coli ATCC 12435; assay: Antibacterial MIC, two-fold serial dilution; assay type: cell-based; details: ATCC12435, Gram −ve bacteria, LB broth, 37°C, 24 h, visual (no turbidity)
Experimental: (§1) The antimicrobial activity of the synthesized thiadiazolopyrimidine compounds was studied toward diverse pathogenic strains, such as gram-positive bacteria (Staphylococcus aureus ATCC 29213 and Bacillus cereus UW85), gram-negative bacteria (Escherichia coli ATCC 12435 and Pseudomonas aeruginosa ATCC 29260), and fungi (Candida albicans and Aspergillus fumigatus 293). The assessment was performed through the two-fold dilution technique using Ampicillin (antibacterial) and Fluconazole (antifungal) as the reference drugs[28],[29]. The minimal inhibitory concentration (MICs, µg/mL) of the synthesized derivatives for prohibiting microbial growth was determined through the visual detection (no turbidity) technique.
(§2) The synthesized thiadiazolopyrimidine-based compounds were evaluated and adopted for antibacterial and antifungal effectiveness using the approved procedure[38],[39].
(§3) Minimal inhibitory concentrations (MICs) were determined by serial dilution technique using 96-multiwell microtiter plates. The investigated compounds were dissolved in DMSO 100% to prepare stock solutions of 5000 µg/mL. Two-fold serial dilutions of the dissolved compounds were performed in LB broth providing eight different concentrations (1250, 625, 312.5, 156, 78, 39, 19.5 µg/mL). Overnight cultures of microorganisms were diluted to 1 ×10^6 CFU/mL in LB broth, and 20 mL of the diluted cultures were added to the test solutions (50 mL) in the wells (one well per concentration per bacterial strain). The plates were incubated at 37°C for 24 h. MIC was detected visually as the least concentration inhibiting bacterial growth (no turbidity) and the activity of the tested compounds was estimated in comparison to ampicillin.

[2] = system: Pseudomonas aeruginosa ATCC 29260; assay: Antibacterial MIC, two-fold serial dilution; assay type: cell-based; details: ATCC29260, Gram −ve bacteria, LB broth, 37°C, 24 h, visual (no turbidity), read-out: MIC P. aeruginosa
Experimental: as §1, §2, §3

[3] = system: Staphylococcus aureus ATCC 29213; assay: Antibacterial MIC, two-fold serial dilution; assay type: cell-based; details: ATCC29213, Gram +ve bacteria, LB broth, 37°C, 24 h, visual (no turbidity), read-out: MIC S. aureus
Experimental: as §1, §2, §3

Bacillus cereus UW85 = assay: Antibacterial MIC, two-fold serial dilution; assay type: cell-based; details: Gram +ve bacteria, LB broth, 37°C, 24 h, visual (no turbidity), read-out: MIC B. cereus
Experimental: as §1, §2, §3

Row | SMILES | Absorbance (bleomycin-dependent DNA damage) (DNA) | melting point [°C] | MIC [1] [µg/mL] | MIC [2] [µg/mL] | MIC [3] [µg/mL] | MIC (Bacillus cereus UW85) [µg/mL]
1 | CC1=C(C#N)C2C(=C(N)O1)C(=O)N=C1SC=NN12 (stereo not shown) [Compound 9a, 6-Amino-9-cyano-8-methyl-5-oxo-5H,9aH-pyrano[3,4-e][1,3,4]thiadiazolo[3,2-a]pyrimidine] | 0.064 ± 0.06 | 264 to 265 | 625 (≈ 2390 µM) | 625 (≈ 2390 µM) | 312 (≈ 1200 µM) | 312 (≈ 1200 µM)
2 | COc1ccc(N=Nc2c(O)nn3c(N)c4c(=O)nc5scnn5c4nc23)cc1 [Compound 17b, 6-Amino-9-hydroxy-10-(4-methoxyphenylazo)-5H-pyrazolo[1′,5′:1,2]pyrimido[5,4-e][1,3,4]thiadiazolo[3,2-a]pyrimidin-5-one] | 0.042 ± 0.03 | 280 to 281 | 19.5 (≈ 47.6 µM) | 39 (≈ 95.3 µM) | 1250 (≈ 3050 µM) | 625 (≈ 1530 µM)
3 | COc1ccc(N=Nc2c(N)nn3c(N)c4c(=O)nc5scnn5c4nc23)cc1 [Compound 16b, 6,9-Diamino-10-(4-methoxyphenylazo)-5H-pyrazolo[1′,5′:1,2]pyrimido[5,4-e][1,3,4]thiadiazolo[3,2-a]pyrimidin-5-one] | 0.031 ± 0.04 | > 320 | 19.5 (≈ 47.7 µM) | 78 (≈ 191 µM) | 625 (≈ 1530 µM) | > 1250
4 | Nc1c2c(=O)nc3scnn3c2nc2nncn12 [Compound 12, 6-Amino-5H-[1,2,4]triazolo[4′,3′:1,2]pyrimido[5,4-e][1,3,4]thiadiazolo[3,2-a]pyrimidin-5-one] | 0.107 ± 0.08 | 290 to 291 | > 1250 | > 1250 | 625 (≈ 2400 µM) | > 1250
5 | N#Cc1c(N)nc(N)c2c(=O)nc3scnn3c12 [Compound 6, 6,8-Diamino-9-cyano-5-oxo-5H-pyrido[3,4-e][1,3,4]thiadiazolo[3,2-a]pyrimidine] | 0.135 ± 0.14 | 302 to 303 | > 1250 | 1250 (≈ 4820 µM) | > 1250 | 1250 (≈ 4820 µM)
6 | CC1=C(C(=O)c2ccccc2)C2C(=C(N)O1)C(=O)N=C1SC=NN12 (stereo not shown) [Compound 8b, 6-Amino-9-benzoyl-8-methyl-5H,9aH-pyrano[3,4-e][1,3,4]thiadiazolo[3,2-a]pyrimidin-5-one] | 0.066 ± 0.05 | 239 to 241 | 1250 (≈ 3670 µM) | 312 (≈ 918 µM) | 156 (≈ 458 µM) | 312 (≈ 918 µM)
7 | Nc1n[nH]c2c1c(=O)nc1scnn12 [Compound 4, 3-Aminopyrazolo[4,3-e][1,3,4]thiadiazolo[3,2-a]pyrimidin-4(1H)-one] | 0.165 ± 0.19 | 281 to 282 | > 1250 | > 1250 | 1250 (≈ 6000 µM) | > 1250
8 | N#CC1=C(c2ccccc2)OC(N)=C2C(=O)N=C3SC=NN3C12 (stereo not shown) [Compound 9b, 6-Amino-9-cyano-5-oxo-8-phenyl-5H,9aH-pyrano[3,4-e][1,3,4]thiadiazolo[3,2-a]pyrimidine] | 0.083 ± 0.08 | 258 to 260 | 625 (≈ 1930 µM) | 625 (≈ 1930 µM) | 312 (≈ 966 µM) | 156 (≈ 482 µM)
9 | Nc1nn(-c2ccccc2)c2c1c(=O)nc1scnn12 [Compound 5, 3-Amino-1-phenylpyrazolo[4,3-e][1,3,4]thiadiazolo[3,2-a]pyrimidin-4(1H)-one] | 0.146 ± 0.16 | 254 to 255 | 1250 (≈ 4400 µM) | 1250 (≈ 4400 µM) | 625 (≈ 2200 µM) | 625 (≈ 2200 µM)
10 | Cc1nn(-c2ccccc2)c2c1C1C(=C(N)O2)C(=O)N=C2SC=NN21 (stereo not shown) [Compound 10b, 6-Amino-10-methyl-8-phenyl-8,10b-dihydro-5H-pyrazolo[4′,3′:5,6]pyrano[3,4-e][1,3,4]thiadiazolo[3,2-a]pyrimidin-5-one] | 0.119 ± 0.13 | 266 to 267 | 312 (≈ 887 µM) | 625 (≈ 1770 µM) | 625 (≈ 1770 µM) | 625 (≈ 1770 µM)
11 | Cc1ccc(N=Nc2c(O)nn3c(N)c4c(=O)nc5scnn5c4nc23)cc1 [Compound 17a, 6-Amino-9-hydroxy-10-(4-methylphenylazo)-5H-pyrazolo[1′,5′:1,2]pyrimido[5,4-e][1,3,4]thiadiazolo[3,2-a]pyrimidin-5-one] | 0.053 ± 0.05 | 264 to 265 | 156 (≈ 397 µM) | 156 (≈ 397 µM) | 625 (≈ 1590 µM) | 625 (≈ 1590 µM)
12 | Cc1n[nH]c2c1C1C(=C(N)O2)C(=O)N=C2SC=NN21 (stereo not shown) [Compound 10a, 6-Amino-10-methyl-8,10b-dihydro-5H-pyrazolo[4′,3′:5,6]pyrano[3,4-e][1,3,4]thiadiazolo[3,2-a]pyrimidin-5-one] | 0.098 ± 0.07 |  | 1250 (≈ 4520 µM) | 312 (≈ 1130 µM) | 625 (≈ 2260 µM) | 625 (≈ 2260 µM)
13 | CCOC(=O)c1c(N)nc(N)c2c(=O)nc3scnn3c12 [Compound 7, Ethyl 6,8-diamino-5-oxo-5H-pyrido[3,4-e][1,3,4]thiadiazolo[3,2-a]pyrimidine-9-carboxylate] | 0.132 ± 0.19 | 278 to 280 | 625 (≈ 2040 µM) | 1250 (≈ 4080 µM) | 1250 (≈ 4080 µM) | 1250 (≈ 4080 µM)
14 | Cc1ccc(N=Nc2c(N)nn3c(N)c4c(=O)nc5scnn5c4nc23)cc1 [Compound 16a, 6,9-Diamino-10-(4-methylphenylazo)-5H-pyrazolo[1′,5′:1,2]pyrimido[5,4-e][1,3,4]thiadiazolo[3,2-a]pyrimidin-5-one] | 0.039 ± 0.07 | > 320 | 78 (≈ 199 µM) | 156 (≈ 398 µM) | 1250 (≈ 3190 µM) | > 1250
15 | Nc1c2c(=O)nc3scnn3c2nc2nnnn12 [Compound 11, 6-Amino-5H-[1,3,4]thiadiazolo[2′,3′:2,3]pyrimido[4,5-d]tetrazolo[1,5-a]pyrimidin-5-one] | 0.113 ± 0.16 | 274 to 275 | > 1250 | 1250 (≈ 4790 µM) | 312 (≈ 1200 µM) | 1250 (≈ 4790 µM)
16 | CC(=O)C1=C(C)OC(N)=C2C(=O)N=C3SC=NN3C12 (stereo not shown) [Compound 8a, 9-Acetyl-6-amino-8-methyl-5H,9aH-pyrano[3,4-e][1,3,4]thiadiazolo[3,2-a]pyrimidin-5-one] | 0.078 ± 0.13 |  | 1250 (≈ 4490 µM) | 1250 (≈ 4490 µM) | 312 (≈ 1120 µM) | 625 (≈ 2250 µM)
17 | N#Cc1cn2ncsc2nc1=O [Compound 3, 6-cyano-7-oxo-7H-[1,3,4]thiadiazolo[3,2-a]pyrimidine] | 0.281 ± 0.22 | 264 to 265 | > 1250 | > 1250 | 1250 (≈ 7020 µM) | > 1250
18 | Cc1cc2nc3c(c(N)n2n1)c(=O)nc1scnn13 [Compound 13, 6-Amino-9-methyl-5H-pyrazolo[1′,5′:1,2]pyrimido[5,4-e][1,3,4]thiadiazolo[3,2-a]pyrimidin-5-one] | 0.128 ± 0.11 | 304 to 306 | 1250 (≈ 4570 µM) | > 1250 | 1250 (≈ 4570 µM) | > 1250

— paper PMC8333053, “Synthesis and biological screening of new thiadiazolopyrimidine-based polycyclic compounds” (Scientific Reports, 2021)
